According to PubChem BioAssay AID194 (DTP/NCI, 2004):
Records with an inconclusive call do not appear.

Test system: BDF1 mice, B16 melanoma s.c., survival/tumor T/C
Test: NCI In Vivo Anticancer Drug Screen. Data for tumor model B16 Melanoma (subcutaneous) in B6D2F1 (BDF1) mice
Experimental: The antitumor activity of compounds was measured in mice bearing transplantable tumors. Survival or tumor size were measured and the results are expressed as the measurement made in the treated group (T) divided by the measurement made in the vehicle treated control group (C). The tumor model used in this assay is B16 Melanoma (subcutaneous) in B6D2F1 (BDF1) mice

[1] = endpoint: median survival time, dose: 0.5 mg/kg/injection, schedule: Q01DX009 (ip), vehicle: other, higher = longer survival
[2] = endpoint: median survival time, dose: 1.0 mg/kg/injection, schedule: Q01DX009 (ip), vehicle: other, higher = longer survival
[3] = endpoint: median survival time, dose: 2.0 mg/kg/injection, schedule: Q01DX009 (ip), vehicle: other, higher = longer survival

O=NN(CCF)C(=O)NC1CCCCC1
T/C (endpoint: median survival time, dose: 0.63 mg/kg/injection, schedule: Q01HX012 (ip), vehicle: Klucel (hydroxypropylcellulose) (HPC), higher = longer survival): 123 % of control
T/C (endpoint: median survival time, dose: 1.25 mg/kg/injection, schedule: Q01HX012 (ip), vehicle: Klucel (hydroxypropylcellulose) (HPC), higher = longer survival): 107 % of control
T/C (endpoint: median survival time, dose: 1.25 mg/kg/injection, schedule: Q02HX006 (ip), vehicle: Klucel (hydroxypropylcellulose) (HPC), higher = longer survival): 96 % of control
T/C (endpoint: median survival time, dose: 1.88 mg/kg/injection, schedule: Q03HX004 (ip), vehicle: Klucel (hydroxypropylcellulose) (HPC), higher = longer survival): 96 % of control
T/C (endpoint: median survival time, dose: 2.5 mg/kg/injection, schedule: Q02HX006 (ip), vehicle: Klucel (hydroxypropylcellulose) (HPC), higher = longer survival): 101 % of control
T/C (endpoint: median survival time, dose: 3.11 mg/kg/injection, schedule: Q01DX007 (ip), vehicle: Klucel (hydroxypropylcellulose) (HPC), higher = longer survival): 98 % of control
T/C (endpoint: median survival time, dose: 5.0 mg/kg/injection, schedule: Q01HX012 (ip), vehicle: Klucel (hydroxypropylcellulose) (HPC), higher = longer survival): 242 % of control
T/C (endpoint: median survival time, dose: 5.0 mg/kg/injection, schedule: Q02HX006 (ip), vehicle: Klucel (hydroxypropylcellulose) (HPC), higher = longer survival): 115 % of control
T/C (endpoint: median survival time, dose: 5.18 mg/kg/injection, schedule: Q01DX007 (ip), vehicle: Klucel (hydroxypropylcellulose) (HPC), higher = longer survival): 102 % of control
T/C (endpoint: median survival time, dose: 7.5 mg/kg/injection, schedule: Q01DX001 (ip), vehicle: Klucel (hydroxypropylcellulose) (HPC), higher = longer survival): 107 % of control
T/C (endpoint: median survival time, dose: 7.5 mg/kg/injection, schedule: Q03HX004 (ip), vehicle: Klucel (hydroxypropylcellulose) (HPC), higher = longer survival): 115 % of control
T/C (endpoint: median survival time, dose: 10.0 mg/kg/injection, schedule: Q02HX006 (ip), vehicle: Klucel (hydroxypropylcellulose) (HPC), higher = longer survival): 261 % of control
T/C (endpoint: median survival time, dose: 14.4 mg/kg/injection, schedule: Q01DX007 (ip), vehicle: Klucel (hydroxypropylcellulose) (HPC), higher = longer survival): 120 % of control
T/C (endpoint: median survival time, dose: 15.0 mg/kg/injection, schedule: Q01DX001 (ip), vehicle: Klucel (hydroxypropylcellulose) (HPC), higher = longer survival): 119 % of control
T/C (endpoint: median survival time, dose: 15.0 mg/kg/injection, schedule: Q03HX004 (ip), vehicle: Klucel (hydroxypropylcellulose) (HPC), higher = longer survival): 157 % of control
T/C (endpoint: median survival time, dose: 15.8 mg/kg/injection, schedule: Q01DX007 (ip), vehicle: Klucel (hydroxypropylcellulose) (HPC), higher = longer survival): 115 % of control
T/C (endpoint: median survival time, dose: 20.0 mg/kg/injection, schedule: Q02HX006 (ip), vehicle: Klucel (hydroxypropylcellulose) (HPC), higher = longer survival): 88 % of control
T/C (endpoint: median survival time, dose: 23.7 mg/kg/injection, schedule: Q01DX007 (ip), vehicle: Klucel (hydroxypropylcellulose) (HPC), higher = longer survival): 68 % of control
T/C (endpoint: median survival time, dose: 30.0 mg/kg/injection, schedule: Q01DX001 (ip), vehicle: Klucel (hydroxypropylcellulose) (HPC), higher = longer survival): 164 % of control
T/C (endpoint: median survival time, dose: 30.0 mg/kg/injection, schedule: Q03HX004 (ip), vehicle: Klucel (hydroxypropylcellulose) (HPC), higher = longer survival): 326 % of control
T/C (endpoint: median survival time, dose: 35.6 mg/kg/injection, schedule: Q01DX007 (ip), vehicle: Klucel (hydroxypropylcellulose) (HPC), higher = longer survival): 69 % of control
T/C (endpoint: median survival time, dose: 53.3 mg/kg/injection, schedule: Q01DX007 (ip), vehicle: Klucel (hydroxypropylcellulose) (HPC), higher = longer survival): 60 % of control
T/C (endpoint: median survival time, dose: 60.0 mg/kg/injection, schedule: Q01DX001 (ip), vehicle: Klucel (hydroxypropylcellulose) (HPC), higher = longer survival): 238 % of control
T/C (endpoint: median survival time, dose: 80.0 mg/kg/injection, schedule: Q01DX007 (ip), vehicle: Klucel (hydroxypropylcellulose) (HPC), higher = longer survival): 55 % of control
T/C (endpoint: median tumor weight (est.), dose: 1.25 mg/kg/injection, schedule: Q01HX012 (ip), vehicle: Klucel (hydroxypropylcellulose) (HPC), higher = larger tumour): 59 % of control
T/C (endpoint: median tumor weight (est.), dose: 1.25 mg/kg/injection, schedule: Q02HX006 (ip), vehicle: Klucel (hydroxypropylcellulose) (HPC), higher = larger tumour): 114 % of control
T/C (endpoint: median tumor weight (est.), dose: 1.88 mg/kg/injection, schedule: Q03HX004 (ip), vehicle: Klucel (hydroxypropylcellulose) (HPC), higher = larger tumour): 61 % of control
T/C (endpoint: median tumor weight (est.), dose: 2.5 mg/kg/injection, schedule: Q01HX012 (ip), vehicle: Klucel (hydroxypropylcellulose) (HPC), higher = larger tumour): 10 % of control
T/C (endpoint: median tumor weight (est.), dose: 2.5 mg/kg/injection, schedule: Q02HX006 (ip), vehicle: Klucel (hydroxypropylcellulose) (HPC), higher = larger tumour): 67 % of control
T/C (endpoint: median tumor weight (est.), dose: 3.75 mg/kg/injection, schedule: Q03HX004 (ip), vehicle: Klucel (hydroxypropylcellulose) (HPC), higher = larger tumour): 83 % of control
T/C (endpoint: median tumor weight (est.), dose: 5.0 mg/kg/injection, schedule: Q02HX006 (ip), vehicle: Klucel (hydroxypropylcellulose) (HPC), higher = larger tumour): 26 % of control
T/C (endpoint: median tumor weight (est.), dose: 7.5 mg/kg/injection, schedule: Q01DX001 (ip), vehicle: Klucel (hydroxypropylcellulose) (HPC), higher = larger tumour): 110 % of control
T/C (endpoint: median tumor weight (est.), dose: 7.5 mg/kg/injection, schedule: Q03HX004 (ip), vehicle: Klucel (hydroxypropylcellulose) (HPC), higher = larger tumour): 70 % of control
T/C (endpoint: median tumor weight (est.), dose: 15.0 mg/kg/injection, schedule: Q01DX001 (ip), vehicle: Klucel (hydroxypropylcellulose) (HPC), higher = larger tumour): 70 % of control

c1ccc(-c2csc3c4ccccc4c4ccccc4[n+]23)cc1
T/C (endpoint: median survival time, dose: 0.5 mg/kg/injection, schedule: Q01DX009 (ip), vehicle: suspension in saline, higher = longer survival): 114 % of control
T/C (endpoint: median survival time, dose: 1.0 mg/kg/injection, schedule: Q01DX009 (ip), vehicle: suspension in saline, higher = longer survival): 124 % of control

O=[N+]([O-])c1nccn1CC(O)CO (centres undefined)
T/C (endpoint: median survival time, dose: 1000.0 mg/kg/injection, schedule: Q01DX001 (ip), vehicle: saline, higher = longer survival): 91 % of control
T/C (endpoint: median survival time, dose: 2500.0 mg/kg/injection, schedule: Q01DX001 (ip), vehicle: saline, higher = longer survival): 85 % of control

CN[C@H]1CCc2cc(OC)c(OC)c(OC)c2-c2ccc(OC)c(=O)cc21
T/C (endpoint: median survival time, dose: 1.25 mg/kg/injection, schedule: Q01DX009 (ip), vehicle: saline, higher = longer survival): 109 % of control
T/C (endpoint: median survival time, dose: 2.5 mg/kg/injection, schedule: Q01DX009 (ip), vehicle: saline, higher = longer survival): 95 % of control
T/C (endpoint: median survival time, dose: 10.0 mg/kg/injection, schedule: Q01DX009 (ip), vehicle: saline, higher = longer survival): 111 % of control

COC(=O)[C@@H]1c2cc3c(c(O)c2[C@@H](OC2OC(C)C(OC)C(C)(OC)C2OC)C[C@]1(C)O)C(=O)c1c(O)cc2c(c1C3=O)O[C@H]1O[C@]2(C)[C@H](O)[C@@H](N(C)C)[C@@H]1O (some centres undefined)
T/C [1]: 90 % of control
T/C (endpoint: median survival time, dose: 125.0 micrograms/kg/injection, schedule: Q01DX009 (ip), vehicle: saline + alcohol, higher = longer survival): 118 % of control
T/C (endpoint: median survival time, dose: 500.0 micrograms/kg/injection, schedule: Q01DX009 (ip), vehicle: saline + alcohol, higher = longer survival): 118 % of control
T/C (endpoint: median survival time, dose: 1000.0 micrograms/kg/injection, schedule: Q01DX009 (ip), vehicle: saline + alcohol, higher = longer survival): 109 % of control

CCOC(=O)C(CC(C)C)NC(=O)C(Cc1ccc(N(CCCl)CCCl)cc1)NC(C)=O (centres undefined)
T/C [2]: 91 % of control
T/C [3]: 103 % of control
T/C (endpoint: median survival time, dose: 4.0 mg/kg/injection, schedule: Q01DX009 (ip), vehicle: other, higher = longer survival): 97 % of control
T/C (endpoint: median survival time, dose: 16.0 mg/kg/injection, schedule: Q01DX009 (ip), vehicle: other, higher = longer survival): 89 % of control

CCOC(=O)c1csc(CCNC(=O)c2ccccc2)n1
T/C (endpoint: median survival time, dose: 6.25 mg/kg/injection, schedule: Q01DX009 (ip), vehicle: water, higher = longer survival): 101 % of control
T/C (endpoint: median survival time, dose: 12.5 mg/kg/injection, schedule: Q01DX009 (ip), vehicle: water, higher = longer survival): 94 % of control
T/C (endpoint: median survival time, dose: 25.0 mg/kg/injection, schedule: Q01DX009 (ip), vehicle: water, higher = longer survival): 113 % of control
T/C (endpoint: median survival time, dose: 50.0 mg/kg/injection, schedule: Q01DX009 (ip), vehicle: water, higher = longer survival): 87 % of control
T/C (endpoint: median survival time, dose: 100.0 mg/kg/injection, schedule: Q01DX009 (ip), vehicle: water, higher = longer survival): 98 % of control

COc1cc(NS(C)(=O)=O)ccc1Nc1c2ccccc2nc2ccccc12
T/C [1]: 103 % of control
T/C [2]: 98 % of control
T/C [3]: 89 % of control
T/C (endpoint: median survival time, dose: 2.0 mg/kg/injection, schedule: Q01DX009 (ip), vehicle: saline with Tween-80, higher = longer survival): 102 % of control
T/C (endpoint: median survival time, dose: 3.0 mg/kg/injection, schedule: Q01DX009 (ip), vehicle: saline with Tween-80, higher = longer survival): 101 % of control
T/C (endpoint: median survival time, dose: 4.5 mg/kg/injection, schedule: Q01DX009 (ip), vehicle: saline with Tween-80, higher = longer survival): 98 % of control
T/C (endpoint: median survival time, dose: 9.0 mg/kg/injection, schedule: Q04DX003 (ip), vehicle: saline with Tween-80, higher = longer survival): 89 % of control
T/C (endpoint: median survival time, dose: 13.0 mg/kg/injection, schedule: Q04DX003 (ip), vehicle: saline with Tween-80, higher = longer survival): 108 % of control
T/C (endpoint: median survival time, dose: 20.0 mg/kg/injection, schedule: Q01DX001 (ip), vehicle: saline with Tween-80, higher = longer survival): 101 % of control
T/C (endpoint: median survival time, dose: 20.0 mg/kg/injection, schedule: Q04DX003 (ip), vehicle: saline with Tween-80, higher = longer survival): 98 % of control
T/C (endpoint: median survival time, dose: 30.0 mg/kg/injection, schedule: Q01DX001 (ip), vehicle: saline with Tween-80, higher = longer survival): 107 % of control
T/C (endpoint: median survival time, dose: 45.0 mg/kg/injection, schedule: Q01DX001 (ip), vehicle: saline with Tween-80, higher = longer survival): 107 % of control

C[n+]1c2ccccc2c(Nc2ccc(NS(=O)(=O)CCCCN=C(N)N)cc2)c2ccc(N)cc21
T/C (endpoint: median survival time, dose: 1.5 mg/kg/injection, schedule: Q01DX009 (sc), vehicle: saline, higher = longer survival): 96 % of control
T/C (endpoint: median survival time, dose: 3.0 mg/kg/injection, schedule: Q01DX009 (sc), vehicle: saline, higher = longer survival): 112 % of control
T/C (endpoint: median survival time, dose: 6.0 mg/kg/injection, schedule: Q01DX009 (sc), vehicle: saline, higher = longer survival): 108 % of control
